Experiment [1] relates to mice. The experiment in a line: conventional two-compartment behavioral choice assay (odor-soaked filter paper). Format: in vivo. Conditions: odors soaked into filter papers placed in the small compartment of a cage divided by a parafilm curtain; FIGS. 4A and 4B. An excerpt:
(§1) FIGS. 4A-4E depict assessment of odor-driven innate behaviors in two and three dimensions. FIGS. 4A and B depict a conventional two-compartment behavioral choice assay. FIG. 4C, left, depicts a new behavioral arena. FIG. 4C, right, depicts a chart generated through use of custom-written Matlab code to track animal trajectories.
(§2) FIGS. 4A-4E depict the assessment of odor-driven innate behaviors in two and three dimensions. […] Odors are soaked into filter papers, which are placed in the small compartment of a cage divided by a parafilm curtain. This assay suffers from incomplete control of gas-phase odorant concentration, poorly defined spatial odor gradients and experimental variability due to the physical interaction of the animal with the odor source. The present inventors have therefore developed a new behavioral arena (FIG. 4C, left), in which odors are delivered to each of 4 corners in gas phase via high-performance computer-controlled Teflon valves.

The test system of experiment [2] is mice. The experiment in a line: odor quadrant arena, odors delivered in gas phase to one of four corners, animal tracked by 2D tracking or depth camera. Format: in vivo.
Excerpt: as §1, §2
Odors are delivered to one of four quadrants via computer-controlled olfactometers, which can deliver precisely timed pulses or square waves of odorants at defined concentrations. […]

The values that follow come from patent US20220207902A1, “SYSTEM AND METHOD FOR AUTOMATICALLY DISCOVERING, CHARACTERIZING, CLASSIFYING AND SEMI-AUTOMATICALLY LABELING ANIMAL BEHAVIOR AND QUANTITATIVE PHENOTYPING OF BEHAVIORS IN ANIMALS” (President and Fellows of Harvard College, priority 2012, published 2022).

Molecules are shown by their SMILES. “Also recorded” adds a separate entry of the source.

For `CCCC(=O)O` [butyric acid], the “innate behavioral response to odor (attraction or avoidance)” value (“innate behavioral response to odor” below) in the experiment on mice [1] is listed as “avoidance”.

Consider `Cc1cnc(C)cn1` [2,5-DMP], for which, in the experiment on mice [1], the “innate behavioral response to odor” value is listed as “avoidance”.

Turning to `CCCCCC(C)=O` [2-heptanone], in the experiment with mice [1], the “innate behavioral response to odor” value is recorded as “avoidance”.

Take `C=CCc1ccc(O)c(OC)c1` [eugenol]: in the experiment with mice [1], the “innate behavioral response to odor” value is “robust innate behavioral attraction”.

For the molecule `CC1=NC(C)SC1C` (stereo not shown) [TMT], the “posture (aspect ratio versus height) by depth camera” value in the experiment on mice [2] (depth camera, compared with control conditions (stretched and low to the ground), FIG. 4E) was “become compressed (from the perspective of the overhead camera) and elevate their noses”. The “qualitative and quantitative avoidance behavior” value with mice [2] (odor delivered in gas phase in the upper right corner, FIG. 4D) is “avoidance behaviors that are extraordinarily robust and well controlled; also recorded: avoidance behavior”. Besides, the “innate behavioral response to odor” value in the experiment on mice [1] is on record as “avoidance”.
